Patent US7563862B2, “Neural regeneration peptides and methods for their use in treatment of brain damage” (Neuren Pharmaceuticals Limited, priority 2001, dated 2009)
Ends that are not written are not given here.

Columns and labels:
cerebellar microexplants = assay: cerebellar microexplant proliferation assay under injury (BrdU-positive nuclei); format: cell-based, rat
Procedure: Using the toxins described above, cerebellar explants were exposed for 24 hours, at the beginning of culturing to dilutions of NRP and 0.1 μM BrdU. Subsequently, 80% of the medium was changed without addition of new toxins and NRPs. The cerebellar cultures were fixed as described above after 3 days in vitro. The detection of the incorporated BrdU level was performed as described previously. Under these conditions, over 99% of the cells in the cerebellar population were neurons. Therefore any increase in cell number after NRP administration was most likely due to neuronal cell proliferation.
For statistical analysis of proliferation four fields (each field having an area of 0.65 mm^2) of each fixed cerebellar culture displaying highest density of BrdU-positive nuclei were chosen, and BrdU-positive nuclei were counted. Statistical significance was measured by Student's t-test.
Laminated cerebellar cortex was extracted from P3/4, P7/8 rat pups and triturated through gauze having a 125 μm pore size to obtain uniformly sized microexplants. After centrifugation for 3 minutes at 61 g and the pellet was resuspended in StartV medium (Biochrom) and the suspension seeded on poly-D-lysine coated coverslips in 6-well plates and incubated for 3 hrs to allow adherence, before 1 ml StartV per well was added. As described previously, glutamate/3-NP and NRP were also added. The explants are cultivated at 34° C. at 5% CO2 and 100% humidity for 48-72 hrs. BrdU was administered at start of cultivation for proliferation rate measurements and cells are counted per microscopic field after 48-72 hrs.

embryonic cortical cells = assay: haptotactic migration assay, cortical cells; format: cell-based, rat; details: 1 day in vitro
Excerpt: To test the cell adhesion and neuronal migration inducing properties of the NRPs a haptotactic migration cell assay was developed (Lu et al.,2001). For this purpose Transwell® cell culture dishes (Costar) with fitting inserts having pores therein with a 12 μm pore size were used to cultivate striatal and neocortical cells. In general, a test agent was adhered to the surface of a culture dish and an insert having pores was placed in culture medium over but not in contact with the surface of the culture dish. Test cells were placed in the inserts, and any cells migrating through the pores and onto the surface of the culture dish reflected chemattractiveness by the test molecule. Under these conditions, the surface of the culture dish would, over time, release some NRP molecules into the culture medium. It can be appreciated that the concentration of “free” NRP would be greater nearer the surface of the culture dish than at distances farther away from the culture dish, thereby creating a gradient in NRP concentration. […] By counting the number and morphology of such migrant cells, effects of NRPs on neuronal migration and differentiation can be evaluated. […]
For seeding striatal cells, 1.5 ml of Neurobasal/B27 medium was put into the culture dishes and 0.5 ml of NeurobasaVB27 medium was put into the insert. The assay was ready for cell seeding. […]

SEPEARRAPGRKGGVVCASLAADW-NH2 [NRP-7 segment SW, 24-mer form of mouse NRP-7]
up regulation of the proliferation rate observed for injured cerebellar microexplants (cerebellar microexplants; 0.1 pM): 252.6% | up regulation of the proliferation rate observed for injured cerebellar microexplants (cerebellar microexplants; 100 pM): 123.7% | enhancement of the proliferation rate (cerebellar microexplants; neurons injured using 3-NP/glutamate): more than 200% | more neurons migrated to the culture dish bottom compared to BSA control (embryonic cortical cells; 15 ng immobilized, 1 pg/ml in medium): 49.8% | number of cells with neurite outgrowth (embryonic cortical cells; 0.1 and 1 μg/ml coating in BSA): significantly increased
